For this assay, the system named is DocSTm toxin. The conditions noted are these: DocSTm 5 μM, peptide 50 μM, pH 8.0; average ± SD, replicates 3-48 (Table S3). The method, then: The thermal shift assay was performed using a Mx3005P qPCR System (Agilent) collecting fluorescence data with a temperature ramp of 25 to 95 °C. Samples were prepared in a buffer containing 20 mM K2HPO4 and 50 mM (NH4)2SO4 at pH 8.0, with a final concentration of recombinant Doc protein at 5 μM and Phd peptides at 50 μM. SYPRO Orange dye (Sigma-Aldrich, 5000X stock in DMSO) was used to monitor protein denaturation in a final concentration of 3×. The final sample volume was 20 μL. Each condition was prepared in triplicate in each independent experiment. The melting curves were plotted using GraphPad Prism 9 (GraphPad Software, USA), and the melting temperatures were obtained by fitting the sigmoidal section of the curves to a Boltzmann sigmoid function. For the calculation of thermal shifts ΔTm, the average melting temperature of free DocSTm toxin as determined in the respective peptide measurement cycles was subtracted from the average melting temperature of DocSTm in the presence of the peptide (Table S3).

Molecules are shown by their SMILES. Non-standard residues stand in square brackets, D forms with d. Residues, ends and D or L forms follow the SMILES beside them. Nle = CCCC[C@H](N)C(=O)O

Turning to `CCCC[C@H](NC(=O)[C@H](Cc1c[nH]c2ccccc12)NC(C)=O)C(=O)N[C@@H](CC(=O)O)C(=O)N[C@@H](CC(=O)O)C(=O)N[C@@H](CCC(=O)O)C(=O)N[C@@H](Cc1ccccc1)C(=O)N[C@@H](C)C(=O)N[C@@H](C)C(=O)N[C@H](C(=O)N[C@@H](CCCC)C(=O)N[C@@H](C)C(=O)N[C@H](C(=O)N[C@@H](Cc1c[nH]cn1)C(=O)NCC(=O)N[C@@H](CC(N)=O)C(=O)N[C@@H](CCCNC(=N)N)C(=O)N[C@@H](CC(C)C)C(=O)N[C@@H](CCCNC(=N)N)C(=O)N[C@@H](CCC(=O)O)C(=O)N[C@@H](CC(C)C)C(=O)N[C@@H](C)C(=O)N[C@@H](CC(=O)O)C(=O)N[C@@H](CCCCN)C(=O)O)C(C)C)[C@@H](C)CC` [Peptide 10] (Ac-W[Nle]DDEFAAI[Nle]AVHGNRLRELADK-OH), the “Average Tm of DocSTm in the presence of peptide” value is 59.5 ± 0.3 °C. For `CCCC[C@H](NC(=O)[C@H](Cc1c[nH]c2ccccc12)NC(C)=O)C(=O)N[C@@H](CCCNC(=N)N)C(=O)N[C@@H](CC(N)=O)C(=O)N[C@@H](CCC(N)=O)C(=O)N[C@@H](Cc1ccccc1)C(=O)N[C@@H](CCCNC(=N)N)C(=O)N[C@@H](C)C(=O)N[C@H](C(=O)N[C@@H](CCCC)C(=O)N[C@@H](CCCNC(=N)N)C(=O)N[C@H](C(=O)N[C@@H](Cc1c[nH]cn1)C(=O)NCC(=O)N[C@@H](CC(N)=O)C(=O)N[C@@H](CCC(N)=O)C(=O)N[C@@H](CC(C)C)C(=O)N[C@@H](CCCNC(=N)N)C(=O)N[C@@H](CCC(=O)O)C(=O)N[C@@H](CC(C)C)C(=O)N[C@@H](C)C(=O)N[C@@H](CC(N)=O)C(=O)N[C@@H](CCCCN)C(=O)O)C(C)C)[C@@H](C)CC` [Peptide 24] (Ac-W[Nle]RNQFRAI[Nle]RVHGNQLRELANK-OH), the “Average Tm of DocSTm in the presence of peptide” value is 54.3 ± 1.6 °C. In the case of `CCCC[C@H](NC(=O)[C@H](Cc1c[nH]c2ccccc12)NC(C)=O)C(=O)N[C@@H](CC(=O)O)C(=O)N[C@@H](CC(=O)O)C(=O)N[C@@H](CCC(=O)O)C(=O)N[C@@H](Cc1ccccc1)C(=O)N[C@@H](C)C(=O)N[C@@H](C)C(=O)N[C@H](C(=O)N[C@@H](CCCC)C(=O)N[C@@H](C)C(=O)N[C@H](C(=O)N[C@@H](Cc1c[nH]cn1)C(=O)NCC(=O)N[C@@H](CC(N)=O)C(=O)N[C@@H](CCC(=O)O)C(=O)N[C@@H](CC(C)C)C(=O)N[C@@H](CCCNC(=N)N)C(=O)N[C@@H](CCC(=O)O)C(=O)N[C@@H](CC(C)C)C(=O)N[C@@H](CCCNC(=N)N)C(=O)N[C@@H](CC(=O)O)C(=O)N[C@@H](CCCCN)C(=O)O)C(C)C)[C@@H](C)CC` [Peptide 12] (Ac-W[Nle]DDEFAAI[Nle]AVHGNELRELRDK-OH) it was 68.3 ± 0.9 °C.

The values above are taken from publication PMC10728895, “Stapled Phd Peptides Inhibit Doc Toxin Induced Growth Arrest in Salmonella” (ACS Chemical Biology, 2023).
